Experimental data as given in US12364213B2, “Container for growth of cryo-sprouts” (RÄ FOODS HOLDINGS LLC, priority 2015, dated 2025).

Tests used:
[1] = system: Salmonella, Listeria monocytogenes, and E. coli O157:H7; test: Pathogen challenge study, overall impact of soak treatments versus Control; assay type: cell-based; details: seed soak treatments; 40° F. and 50° F.
total aerobic bacteria = test: Aerobic Plate Count at Shelf Life Day 28 on samples grown at 40° F.; assay type: cell-based
Procedure: Aerobic Plate Counts were also analyzed at Shelf Life Day 28 on the samples grown at 40° F. by plating to Standard Methods Agar and incubated at 95° F. for 2 days to determine the total aerobic bacteria present in the samples.

E. coli O157:H7 = E. coli O157:H7 cocktail challenge on sprouts grown from soaked seeds (MPN and direct plating); assay type: cell-based
Procedure: (§1) Isolates used to inoculate cryo-sprouts were grown in pure culture and quantitated in order to determine dilutions required to achieve a target level when inoculated into the product.
(§2) The study encompassed three treatments exposed to two different temperatures over the course of 28 days, with weekly pulls, see Table 1 below.
(§3) Initial counts were determined immediately after inoculation for each treatment on Day 0, and again after incubation at 40° F. for 21 days, and 50° F. for 12 days. Subsequent pulls occurred on a weekly basis from Day 0 (after the 21 days at 40° F. or after 12 days at 50° F.) through Day 28.
(§4) The pulls occurred on Shelf Life Day 0, 7, 14, 21, and 28.
(§5) One milliliter from each of the five Salmonella cultures was combined to form a cocktail. The Listeria monocytogenes and E. coli O157:H7 cultures were similarly combined to form a second and third cocktail. These three cocktails were diluted and added to the trays containing 60 ml of deionized water.
(§6) Plastic trays with membrane were filled with 35 grams of soaked sprout seeds representing each of the three treatment groups.
(§7) Sixty milliliters of deionized water was added to each tray along with a final concentration of approximately 1.0 E+3-1.0 E+4 cfu/ml of each of the three cocktails (Salmonella and Listeria together in one set, and E. coli O157:H7 into another set).
(§8) E. coli O157:H7 samples were serially diluted and plated on a TSA basal layer and capped with EMB, incubated at 95° F. (35° C.) for 2 days. An MPN, consisting of a combination of the three samples, was also set up on each pull day due to the high number of other organisms present in the samples which obscured the direct counts.

Salmonella spp. = Salmonella spp. cocktail challenge on sprouts grown from soaked seeds (MPN and direct plating); assay type: cell-based
Procedure: as §1, §2, §3, §4, §5, §6, §7
Salmonella samples were serially diluted and spread plated on a Tryptic Soy Agar (TSA) basal layer and capped with XLD, incubated at 95° F. (35° C.) for 2 days. An MPN (Most probable number), consisting of a combination of the three samples, was also set up on each pull day due to the high number of other organisms present in the samples which obscured the direct counts.

L. monocytogenes = L. monocytogenes cocktail challenge on sprouts grown from soaked seeds (MPN and direct plating); assay type: cell-based, Listeria monocytogenes
Procedure: as §1, §2, §3, §4, §5, §6, §7
as §8, with “Listeria” for “E. coli O157:H7”, “Modified Oxford Medium (MOX),” for “EMB,”

[2] = grown 12 days at 50° F., held at 40° F.
[3] = grown 12 days at 50° F., Shelf Life Day 0
[4] = grown 12 days at 50° F., Shelf Life Day 7 at 40° F.
[5] = grown 12 days at 50° F., Shelf Life Day 14 at 40° F.
[6] = grown 12 days at 50° F., Shelf Life Day 21 at 40° F.
[7] = grown 12 days at 50° F., Shelf Life Day 28
[8] = grown 12 days at 50° F., Shelf Life Day 28 at 40° F.
[9] = grown 21 days at 40° F., held at 40° F. through Shelf Life Day 28, from Day 0 to below detectable limit
[10] = grown 21 days at 40° F., held at 40° F., end of study, below detectable limit
[11] = grown 21 days at 40° F., Shelf Life Day 0 at 40° F.
[12] = grown 21 days at 40° F., Shelf Life Day 7 at 40° F.
[13] = grown 21 days at 40° F., Shelf Life Day 14 at 40° F.
[14] = grown 21 days at 40° F., Shelf Life Day 21 at 40° F.
[15] = grown 21 days at 40° F., Shelf Life Day 28 at 40° F.
[16] = grown 21 days at 40° F., Shelf Life Day 21
[17] = grown 21 days at 40° F., Shelf Life Day 28

Compound: CC(=O)O [Acetic Acid, acetic acid]
- impact on the counts in comparison to the Control treatment [1]: did not appear to have a significant impact
- Aerobic Plate Count, average (total aerobic bacteria): 8.1 E+8 cfu/g
- Aerobic Plate Count, avg. log value (total aerobic bacteria): 8.91
- E. coli O157:H7 avg. log values for each pull day (E. coli O157:H7; [2]): 3-5 logs
- E. coli O157:H7 (MPN/mL) or (CFU) (E. coli O157:H7; [3]): 1,100 MPN/mL
- Log10 (E. coli O157:H7 MPN/g) or (CFU) (E. coli O157:H7; [3]): 3.04 Log10 MPN/g
- E. coli O157:H7 (MPN/mL) or (CFU) (E. coli O157:H7; [4]): 110,000 MPN/mL
- Log10 (E. coli O157:H7 MPN/g) or (CFU) (E. coli O157:H7; [4]): 5.04 Log10 MPN/g
- E. coli O157:H7 (MPN/mL) or (CFU) (E. coli O157:H7; [5]): 46,000 MPN/mL
- Log10 (E. coli O157:H7 MPN/g) or (CFU) (E. coli O157:H7; [5]): 4.66 Log10 MPN/g
- E. coli O157:H7 (MPN/mL) or (CFU) (E. coli O157:H7; [6]): 930 MPN/mL
- Log10 (E. coli O157:H7 MPN/g) or (CFU) (E. coli O157:H7; [6]): 2.97 Log10 MPN/g
- E. coli O157:H7 level, MPN method (E. coli O157:H7; [7]): 2,400 MPN/g
- E. coli O157:H7 overall log reduction, MPN method (E. coli O157:H7; grown 12 days at 50° F., Shelf Life Day 28, from Day 0 inoculated control): 1.73 logs
- E. coli O157:H7 (MPN/mL) or (CFU) (E. coli O157:H7; [8]): 2,400 MPN/mL
- Log10 (E. coli O157:H7 MPN/g) or (CFU) (E. coli O157:H7; [8]): 3.38 Log10 MPN/g
- E. coli O157:H7 overall log reduction (E. coli O157:H7; [9]): 4.16 logs
- E. coli O157:H7 level, MPN (E. coli O157:H7; [10]): < 0.3 MPN/g
- E. coli O157:H7 level, direct plating (E. coli O157:H7; [10]): < 10 cfu/g
- E. coli O157:H7 (MPN/mL) or (CFU) (E. coli O157:H7; [11]): <30 MPN/mL
- Log10 (E. coli O157:H7 MPN/g) or (CFU) (E. coli O157:H7; [11]): 0.95 Log10 MPN/g
- E. coli O157:H7 (MPN/mL) or (CFU) (E. coli O157:H7; [12]): 9.3 MPN/mL
- Log10 (E. coli O157:H7 MPN/g) or (CFU) (E. coli O157:H7; [12]): 0.97 Log10 MPN/g
- E. coli O157:H7 (MPN/mL) or (CFU) (E. coli O157:H7; [13]): 0.30 MPN/mL
- Log10 (E. coli O157:H7 MPN/g) or (CFU) (E. coli O157:H7; [13]): −0.5 Log10 MPN/g
- E. coli O157:H7 (MPN/mL) or (CFU) (E. coli O157:H7; [14]): <0.3 MPN/mL
- Log10 (E. coli O157:H7 MPN/g) or (CFU) (E. coli O157:H7; [14]): <−0.5 Log10 MPN/g
- E. coli O157:H7 (MPN/mL) or (CFU) (E. coli O157:H7; [15]): <0.3 MPN/mL
- Log10 (E. coli O157:H7 MPN/g) or (CFU) (E. coli O157:H7; [15]): <−0.5 Log10 MPN/g
- Salmonella spp. counts at each pull date via MPN and plating methods (Salmonella spp.; [2]): 1.4-3 logs
- Log10 (Salmonella MPN/g) or (CFU) (Salmonella spp.; [3]): 3.04 Log10 MPN/g
- Salmonella (MPN/g) or (CFU) (Salmonella spp.; [3]): 1,100 MPN/g
- Log10 (Salmonella MPN/g) or (CFU) (Salmonella spp.; [4]): 2.63 Log10 MPN/g
- Salmonella (MPN/g) or (CFU) (Salmonella spp.; [4]): 430 MPN/g
- Log10 (Salmonella MPN/g) or (CFU) (Salmonella spp.; [5]): 2.46 Log10 MPN/g
- Salmonella (MPN/g) or (CFU) (Salmonella spp.; [5]): 290 MPN/g
- Log10 (Salmonella MPN/g) or (CFU) (Salmonella spp.; [6]): 2.04 Log10 MPN/g
- Salmonella (MPN/g) or (CFU) (Salmonella spp.; [6]): 110 MPN/g
- Log10 (Salmonella MPN/g) or (CFU) (Salmonella spp.; [8]): 1.63 Log10 MPN/g
- Salmonella (MPN/g) or (CFU) (Salmonella spp.; [8]): 43 MPN/g
- Salmonella spp. overall log reduction (Salmonella spp.; [9]): 3.87 logs
- Salmonella spp. level, direct plating (Salmonella spp.; [10]): < 10 cfu/g
- Log10 (Salmonella MPN/g) or (CFU) (Salmonella spp.; [11]): 2.18 Log10 MPN/g
- Salmonella (MPN/g) or (CFU) (Salmonella spp.; [11]): 150 MPN/g
- Log10 (Salmonella MPN/g) or (CFU) (Salmonella spp.; [12]): 0.96 Log10 MPN/g
- Salmonella (MPN/g) or (CFU) (Salmonella spp.; [12]): 9.2 MPN/g
- Log10 (Salmonella MPN/g) or (CFU) (Salmonella spp.; [13]): <−0.5 Log10 MPN/g
- Salmonella (MPN/g) or (CFU) (Salmonella spp.; [13]): <0.3 MPN/g
- Log10 (Salmonella MPN/g) or (CFU) (Salmonella spp.; [14]): <−0.5 Log10 MPN/g
- Salmonella (MPN/g) or (CFU) (Salmonella spp.; [14]): <0.3 MPN/g
- Log10 (Salmonella MPN/g) or (CFU) (Salmonella spp.; [15]): <−0.5 Log10 MPN/g
- Salmonella (MPN/g) or (CFU) (Salmonella spp.; [15]): < 0.3 MPN/g
- Salmonella (MPN/g) or (CFU) (Salmonella spp.; grown 21 days at 40° F., Shelf Life Day 28 at 40° F., listed as Acetic): <0.3 MPN/g
- L. monocytogenes increase through Shelf Life Day 21 (L. monocytogenes; [2]): approximately 2.5 logs
- L. monocytogenes (MPN/g) or (CFU) (L. monocytogenes; [3]): > 1,100 MPN/g
- Log10 (L. monocytogenes MPN/g) or (CFU) (L. monocytogenes; [3]): 3.04 Log10 MPN/g
- L. monocytogenes (MPN/g) or (CFU) (L. monocytogenes; [4]): 24,000 MPN/g
- Log10 (L. monocytogenes MPN/g) or (CFU) (L. monocytogenes; [4]): 4.38 Log10 MPN/g
- L. monocytogenes (MPN/g) or (CFU) (L. monocytogenes; [5]): > 110,000 MPN/g
- Log10 (L. monocytogenes MPN/g) or (CFU) (L. monocytogenes; [5]): 5.04 Log10 MPN/g
- L. monocytogenes average, direct plating (L. monocytogenes; grown 12 days at 50° F., Shelf Life Day 21): 2.1 E+5 cfu/g
- L. monocytogenes (MPN/g) or (CFU) (L. monocytogenes; [6]): 2.4 E+5 MPN/g
- Log10 (L. monocytogenes MPN/g) or (CFU) (L. monocytogenes; [6]): 5.38 Log10 MPN/g
- L. monocytogenes (MPN/g) or (CFU) (L. monocytogenes; grown 12 days at 50° F., Shelf Life Day 21 at 40° F., listed as Acetic): 240,000 MPN/g
- L. monocytogenes log increase, direct plating method (L. monocytogenes; [7]): 5.14 logs
- L. monocytogenes overall log increase, MPN method (L. monocytogenes; grown 12 days at 50° F., Shelf Life Day 28, from inoculated controls): 1.82 logs
- L. monocytogenes direct counts, avg. log value (L. monocytogenes; grown 12 days at 50° F., Shelf Life Day 28, obscured by background flora, possible overestimation): 7.95
- L. monocytogenes (MPN/g) or (CFU) (L. monocytogenes; [8]): 43,000 MPN/g
- Log10 (L. monocytogenes MPN/g) or (CFU) (L. monocytogenes; [8]): 4.63 Log10 MPN/g
- L. monocytogenes (MPN/g) or (CFU) (L. monocytogenes; [11]): 230 MPN/g
- Log10 (L. monocytogenes MPN/g) or (CFU) (L. monocytogenes; [11]): 2.36 Log10 MPN/g
- L. monocytogenes (MPN/g) or (CFU) (L. monocytogenes; [12]): 4.3 MPN/g
- Log10 (L. monocytogenes MPN/g) or (CFU) (L. monocytogenes; [12]): 0.63 Log10 MPN/g
- L. monocytogenes log increase, direct plating (L. monocytogenes; grown 21 days at 40° F., Shelf Life Day 14): 1.33 logs
- L. monocytogenes direct plating counts, average (L. monocytogenes; grown 21 days at 40° F., Shelf Life Day 14, 21, and 28): approximately 4 logs
- L. monocytogenes (MPN/g) or (CFU) (L. monocytogenes; [13]): > 1,100 MPN/g
- Log10 (L. monocytogenes MPN/g) or (CFU) (L. monocytogenes; [13]): 3.04 Log10 MPN/g
- L. monocytogenes direct plating count (L. monocytogenes; [16]): 4.04 logs
- L. monocytogenes log increase, direct plating (L. monocytogenes; [16]): 1.23 logs
- L. monocytogenes (MPN/g) or (CFU) (L. monocytogenes; [14]): 930 MPN/g
- Log10 (L. monocytogenes MPN/g) or (CFU) (L. monocytogenes; [14]): 2.97 Log10 MPN/g
- L. monocytogenes direct count log value (L. monocytogenes; [17]): 4.50 logs
- L. monocytogenes log increase, direct plating (L. monocytogenes; [17]): 1.69 logs
- L. monocytogenes overall log increase, MPN method (L. monocytogenes; [17]): > 0.23 logs
- L. monocytogenes (MPN/g) or (CFU) (L. monocytogenes; [15]): > 1,100 MPN/g
- Log10 (L. monocytogenes MPN/g) or (CFU) (L. monocytogenes; [15]): 3.04 Log10 MPN/g
